{"source": "patent US8609693B2", "about": "“Methods of administration of thrombopoietin agonist compounds” (GlaxoSmithKline LLC, priority 2009, dated 2013)", "origin": "cited, not measured here", "tested_on": "platelet counts", "conditions": "50 mg, 75 mg and 100 mg dose; patients receiving carboplatin/paclitaxel", "data": [{"smiles": "CC1=NN(c2ccc(C)c(C)c2)C(=O)/C1=N\\Nc1cccc(-c2cccc(C(=O)O)c2)c1O", "note": "[Compound B, 3′-[(2Z)-[1-(3,4-dimethylphenyl)-1,5-dihydro-3-methyl-5-oxo-4H-pyrazol-4-ylidene]hydrazino]-2′-hydroxy-[1,1′-biphenyl]-3-carboxylic acid]", "values": [{"measurement": "target platelet improvement counts", "result": "not meet the target platelet improvement counts"}]}]}
